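Exposure lasted 48 hours, with cells grown in 96-well plates and compounds tested at five concentrations. GI50: concentration for 50% inhibition of growth.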 Activity calls are given as the source filed them. No stated cut-off is given here; in the data, active = GI50 up to about 1.1 µM and inactive = higher.
Legend:
Assay in all cases: NCI tumour cell line growth inhibition, 48 h
NCI-H522 = test system: NCI-H522
U-251 = test system: U-251
K562 = test system: K562
SNB-75 = test system: SNB-75
COLO 205 = test system: COLO 205
CAKI-1 = test system: CAKI-1
SK-MEL-5 = test system: SK-MEL-5
CCRF-CEM = test system: CCRF-CEM
KM12 = test system: KM12
HT-29 = test system: HT-29
UO-31 = test system: UO-31
OVCAR-8 = test system: OVCAR-8
SK-OV-3 = test system: SK-OV-3
SW-620 = test system: SW-620
OVCAR-3 = test system: OVCAR-3
HL-60 = test system: HL-60
SNB-19 = test system: SNB-19
A549 = test system: A549
LOX IMVI = test system: LOX IMVI
SR = test system: SR

| Compound | GI50 (NCI-H522) | GI50 (U-251) | GI50 (K562) | GI50 (SNB-75) | GI50 (COLO 205) | GI50 (CAKI-1) | GI50 (SK-MEL-5) | GI50 (CCRF-CEM) | GI50 (KM12) | GI50 (HT-29) | GI50 (UO-31) | GI50 (OVCAR-8) | GI50 (SK-OV-3) | GI50 (SW-620) | GI50 (OVCAR-3) | GI50 (HL-60) | GI50 (SNB-19) | GI50 (A549) | GI50 (LOX IMVI) | GI50 (SR) |
| --- | --- | --- | --- | --- | --- | --- | --- | --- | --- | --- | --- | --- | --- | --- | --- | --- | --- | --- | --- | --- |
| COC(=O)c1nc(-c2ccc3c(n2)C(=O)C(=N)C(OC)=C3O)c(N)c(-c2ccc(OC)c(OC)c2O)c1C | 1.06 µM (active) | 0.377 µM (active) | 1.93 µM (inactive) | 0.984 µM (active) | 1.84 µM (inactive) | 0.628 µM (active) | 0.413 µM (active) | 2.56 µM (inactive) | 1.68 µM (inactive) | 1.73 µM (inactive) | 0.729 µM (active) | 1.08 µM (active) | 1.18 µM (inactive) | 1.33 µM (inactive) | 0.445 µM (active) | 0.357 µM (active) | 0.628 µM (active) | 0.189 µM (active) | 0.29 µM (active) |  |
| CC1(C)Oc2ccc3c(=O)cc(-c4ccc(F)cc4)oc3c2C1C(=O)O (centres undefined) | > 100 µM (inactive) | > 100 µM (inactive) | > 100 µM (inactive) |  | > 100 µM (inactive) | 23.3 µM (inactive) | > 100 µM (inactive) | > 100 µM (inactive) |  | > 100 µM (inactive) |  | > 100 µM (inactive) | > 100 µM (inactive) |  | > 100 µM (inactive) |  |  | > 100 µM (inactive) |  | > 100 µM (inactive) |
| Nc1ccc(OCC(O)N2C(=O)c3ccccc3C2=O)cc1 (centres undefined) | > 100 µM (inactive) | > 100 µM (inactive) | > 100 µM (inactive) |  | > 100 µM (inactive) | < 0.01 µM (active) | > 100 µM (inactive) | > 100 µM (inactive) |  | > 100 µM (inactive) | > 100 µM (inactive) | > 100 µM (inactive) | > 100 µM (inactive) | 76.9 µM (inactive) | > 100 µM (inactive) | > 100 µM (inactive) | > 100 µM (inactive) | > 100 µM (inactive) | > 100 µM (inactive) | > 10 µM (inactive) |
| CCC1(O)C[C@H]2CN(CCCc3c([nH]c4ccccc34)[C@@](C(=O)OC)(c3cc4c(cc3OC)N(C)C3[C@](O)(C(=O)OC)[C@H](OC(C)=O)[C@]5(CC)C=CCN6CC[C@]43[C@H]65)C2)C1 (some centres undefined) | 0.194 µM (active) | 0.565 µM (active) | 0.354 µM (active) | 1.35 µM (inactive) | 0.593 µM (active) | 2.33 µM (inactive) | 0.333 µM (active) | 0.453 µM (active) | 0.578 µM (active) | 0.425 µM (active) | 4.38 µM (inactive) | 2.96 µM (inactive) | 0.526 µM (active) | 0.497 µM (active) | 0.281 µM (active) | 0.621 µM (active) | 1.77 µM (inactive) | 1.46 µM (inactive) | 0.583 µM (active) |  |
| O=C(O)CSc1ccc2nc3ccccc3c(O)c2c1 |  | > 100 µM (inactive) | > 100 µM (inactive) |  | > 100 µM (inactive) | > 100 µM (inactive) | > 100 µM (inactive) | > 100 µM (inactive) |  | > 100 µM (inactive) | > 100 µM (inactive) | > 100 µM (inactive) | > 100 µM (inactive) | > 100 µM (inactive) | > 100 µM (inactive) | > 100 µM (inactive) | > 100 µM (inactive) | > 100 µM (inactive) | > 100 µM (inactive) | > 100 µM (inactive) |
| COc1ccc2[nH]cc(/C=C(/C)c3ccncc3)c2c1 | 2.63 µM (inactive) | 5.3 µM (inactive) | 2.98 µM (inactive) | 2.38 µM (inactive) | 3.1 µM (inactive) | 9.73 µM (inactive) | 3.1 µM (inactive) | 3.13 µM (inactive) | 2.44 µM (inactive) | 3.25 µM (inactive) | 23.2 µM (inactive) | 16 µM (inactive) | 4.41 µM (inactive) | 3.83 µM (inactive) | 5.7 µM (inactive) | 1.44 µM (inactive) | 50.6 µM (inactive) | 8.36 µM (inactive) | 6.28 µM (inactive) |  |
| CC(C)C1=CC23CCC4C(C)(C(=O)O)CCCC4(C)C2CC1C1C(=O)N(CCCCCCN2C(=O)C4C5CC6C7(C)CCCC(C)(C(=O)O)C7CCC6(C=C5C(C)C)C4C2=O)C(=O)C13 (centres undefined) | 12 µM (inactive) | 4.08 µM (inactive) | 16.6 µM (inactive) |  | > 10 µM (inactive) |  | 14 µM (inactive) | 7.29 µM (inactive) | 11.4 µM (inactive) | 3.84 µM (inactive) | > 10 µM (inactive) | 9.2 µM (inactive) |  | 15.9 µM (inactive) | 13.9 µM (inactive) | 13.5 µM (inactive) | 10.5 µM (inactive) | 9.31 µM (inactive) |  | 7.43 µM (inactive) |
| C1=CN2C[n+]3ccc4ccccc4c3N=C2c2ccccc21 | 0.622 µM (active) | 0.356 µM (active) | 1.24 µM (inactive) |  | 1.23 µM (inactive) | 15 µM (inactive) | 0.308 µM (active) | 3.3 µM (inactive) | 1.85 µM (inactive) | 2.45 µM (inactive) | 21 µM (inactive) | 4.59 µM (inactive) | 12.2 µM (inactive) | 4.02 µM (inactive) | 0.652 µM (active) | 2.52 µM (inactive) | 2.11 µM (inactive) | 1.75 µM (inactive) |  | 1.11 µM (active) |

— ChEMBL document CHEMBL1201862, “PubChem BioAssay data set” (2004)
